From article PMC2453633 (Diabetes, 2008)
Peptide text beside a SMILES is read from it.

Key:
[1] = target: T1, I-A^g7 (Mus musculus, UniProt P04228+Q31135); assay type: binding
T1 sequence (P04228 24-256): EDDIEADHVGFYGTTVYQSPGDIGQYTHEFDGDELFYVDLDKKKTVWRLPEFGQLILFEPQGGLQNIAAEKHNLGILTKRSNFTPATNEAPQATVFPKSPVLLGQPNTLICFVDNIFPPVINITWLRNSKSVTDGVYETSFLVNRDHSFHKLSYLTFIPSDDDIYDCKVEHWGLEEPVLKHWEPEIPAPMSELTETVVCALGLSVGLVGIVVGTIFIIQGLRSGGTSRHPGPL
T1 sequence (Q31135 1-263): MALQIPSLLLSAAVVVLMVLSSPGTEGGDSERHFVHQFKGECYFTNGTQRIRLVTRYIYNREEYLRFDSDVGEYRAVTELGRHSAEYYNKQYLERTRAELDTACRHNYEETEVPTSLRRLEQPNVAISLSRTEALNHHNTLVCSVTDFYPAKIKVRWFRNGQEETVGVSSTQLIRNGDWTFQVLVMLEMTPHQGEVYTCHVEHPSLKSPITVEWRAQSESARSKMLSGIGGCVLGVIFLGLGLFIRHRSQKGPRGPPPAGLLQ

[2] = target: I-A^k (Mus musculus, UniProt P01910+P06343); assay: Peptide-binding assay on soluble I-A^k
[3] = tested on: ACP T-cell hybridomas; assay: T-cell hybridoma reactivity with nonamers spanning PI-1; assay type: cell-based, mouse; conditions: eight ACP T-cell hybridomas tested; all negative

`CC(C)[C@H](NC(=O)[C@H](CCCCN)NC(=O)[C@H](CCCCN)NC(=O)CN)C(=O)N[C@@H](C)C(=O)N[C@H](C(=O)N[C@H](C(=O)N[C@H](C(=O)N[C@@H](Cc1c[nH]cn1)C(=O)N[C@@H](C)C(=O)NCC(=O)N[C@@H](Cc1ccc(O)cc1)C(=O)NCC(=O)O)C(C)C)[C@@H](C)O)[C@@H](C)O` [MIME, reference compound] (H-GKKVATTVHAGYG-OH) was tested, and the IC50 [1] was 1 µM.

Work on `CC(C)C[C@H](NC(=O)[C@H](C)NC(=O)[C@H](CC(C)C)NC(=O)[C@@H](NC(=O)[C@H](CCC(N)=O)NC(=O)[C@H](CC(C)C)NC(=O)[C@H](CC(=O)O)NC(=O)CNC(=O)[C@@H]1CCCN1C(=O)[C@@H](N)CO)[C@@H](C)O)C(=O)N[C@@H](CCC(=O)O)C(=O)N[C@H](C(=O)N[C@@H](C)C(=O)N[C@@H](CCCNC(=N)N)C(=O)N[C@@H](CCC(N)=O)C(=O)N[C@@H](CCCCN)C(=O)N[C@@H](CCCNC(=N)N)C(=O)NCC(=O)O)C(C)C` [PI-1(47–64)] (H-SPGDLQTLALEVARQKRG-OH) yielded an IC50 [1] of 98.9 µM and an IC50 [2] of 4.8 µM.

`CC(C)C[C@H](NC(=O)[C@H](C)NC(=O)[C@H](CC(C)C)NC(=O)[C@@H](NC(=O)[C@H](CCC(N)=O)NC(=O)[C@H](CC(C)C)NC(=O)[C@H](CC(=O)O)NC(=O)CN)[C@@H](C)O)C(=O)N[C@@H](CCC(=O)O)C(=O)N[C@H](C(=O)N[C@@H](C)C(=O)N[C@@H](CCCNC(=N)N)C(=O)N[C@@H](CCC(N)=O)C(=O)O)C(C)C` [PI-1(49–61)] (H-GDLQTLALEVARQ-OH) showed an IC50 [1] of 20 µM.

With `CC(C)C[C@H](NC(=O)[C@H](C)NC(=O)[C@H](CC(C)C)NC(=O)[C@@H](NC(=O)[C@H](CCC(N)=O)NC(=O)[C@H](CC(C)C)NC(=O)[C@H](CC(=O)O)NC(=O)CNC(=O)[C@H](C)NC(=O)CN)[C@@H](C)O)C(=O)N[C@@H](CCC(=O)O)C(=O)N[C@H](C(=O)N[C@@H](C)C(=O)N[C@@H](CCC(N)=O)C(=O)N[C@@H](CCC(N)=O)C(=O)N[C@@H](CCCCN)C(=O)N[C@@H](CCCNC(=N)N)C(=O)NCC(=O)O)C(C)C` [PI-2(49–66)] (H-GAGDLQTLALEVAQQKRG-OH) the IC50 [1] was 136 µM and the IC50 [2] was 2.1 µM.

For LQTLALEVA, the “T-cells reactive with nonamer (of T-cells tested)” value (from here on “T-cells reactive with nonamer”) [3] was 0 of 8.

With QTLALEVAR the “T-cells reactive with nonamer” value [3] was 0 of 8.

In the case of TLALEVARQ, the “T-cells reactive with nonamer” value [3] is reported as 0 of 8.
